Legend:
COLO-741 = experiment: cells; format: functional, cell-based; details: Homo sapiens
Description: SANGER: Inhibition of human COLO-741 cell growth in a cell viability assay.

COR-L23 = experiment: cells; format: functional, cell-based; details: Homo sapiens;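 note: cell viability assay measuring how strongly compounds suppress growth of COR-L23 cells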
Description: SANGER: Inhibition of human COR-L23 cell growth in a cell viability assay.

CaR-1 = experiment: cells; format: functional, cell-based; details: Homo sapiens;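 note: growth inhibition of human CaR-1 cancer cells, read out with a cell viability assay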
Description: SANGER: Inhibition of human CaR-1 cell growth in a cell viability assay.

D-247MG = experiment: cells; format: functional, cell-based; details: Homo sapiens
Description: SANGER: Inhibition of human D-247MG cell growth in a cell viability assay.

DMS-273 = experiment: cells; format: functional, cell-based; details: Homo sapiens
Description: SANGER: Inhibition of human DMS-273 cell growth in a cell viability assay.

DOK = experiment: cells; format: functional, cell-based; details: Homo sapiens;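 note: cell viability assay read-out, values reflect inhibition of cell growth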
Description: SANGER: Inhibition of human DOK cell growth in a cell viability assay.

EB-3 = experiment: cells; format: functional, cell-based; details: Homo sapiens;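 note: human EB-3 cells, growth inhibition read out via a cell viability assay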
Description: SANGER: Inhibition of human EB-3 cell growth in a cell viability assay.

EGI-1 = experiment: cells; format: functional, cell-based; details: Homo sapiens;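 note: cell viability readout used to gauge growth inhibition of EGI-1 cells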
Description: SANGER: Inhibition of human EGI-1 cell growth in a cell viability assay.

G-402 = experiment: cells; format: functional, cell-based; details: Homo sapiens
Description: SANGER: Inhibition of human G-402 cell growth in a cell viability assay.

HCT-116 = experiment: cells; format: functional, cell-based; details: Homo sapiens
Description: SANGER: Inhibition of human HCT-116 cell growth in a cell viability assay.

HLE = experiment: cells; format: functional, cell-based; details: Homo sapiens;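 note: growth inhibition of human HLE cells, read out by a cell viability assay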
Description: SANGER: Inhibition of human HLE cell growth in a cell viability assay.

Hs-578T = experiment: cells; format: functional, cell-based; details: Homo sapiens
Description: SANGER: Inhibition of human Hs-578-T cell growth in a cell viability assay.

HuO-3N1 = experiment: cells; format: functional, cell-based; details: Homo sapiens;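 note: cell viability readout used to measure how strongly compounds suppress proliferation of human HuO-3N1 cells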
Description: SANGER: Inhibition of human HuO-3N1 cell growth in a cell viability assay.

HuP-T4 = experiment: cells; format: functional, cell-based; details: Homo sapiens;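 note: cell viability assay measuring how much HuP-T4 cell growth is inhibited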
Description: SANGER: Inhibition of human HuP-T4 cell growth in a cell viability assay.

IGR-1 = experiment: cells; format: functional, cell-based; details: Homo sapiens;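 note: growth inhibition of human IGR-1 cells, read out with a cell viability assay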
Description: SANGER: Inhibition of human IGR-1 cell growth in a cell viability assay.

IM-9 = experiment: SANGER: Inhibition of human IM-9 cell growth in a cell viability assay.; format: functional, cell-based
J82 = experiment: cells; format: functional, cell-based; details: Homo sapiens;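 note: growth inhibition of J82 cells, read out with a cell viability assay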
Description: SANGER: Inhibition of human J82 cell growth in a cell viability assay.

KYSE-140 = experiment: cells; format: functional, cell-based; details: Homo sapiens;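 note: cell viability assay measuring growth inhibition in human KYSE-140 cells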
Description: SANGER: Inhibition of human KYSE-140 cell growth in a cell viability assay.

KYSE-270 = experiment: cells; format: functional, cell-based; details: Homo sapiens;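 note: cell growth inhibition measured with a viability assay in the human KYSE-270 line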
Description: SANGER: Inhibition of human KYSE-270 cell growth in a cell viability assay.

KYSE-70 cell line = experiment: cells; format: functional, cell-based; details: Homo sapiens;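 note: cell viability assay read-out, with IC50 expressing suppression of KYSE-70 cell growth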
Description: SANGER: Inhibition of human KYSE-70 cell growth in a cell viability assay.

LCLC-97TM1 = experiment: cells; format: functional, cell-based; details: Homo sapiens;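 note: cell viability assay measuring growth inhibition of human LCLC-97TM1 cells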
Description: SANGER: Inhibition of human LCLC-97TM1 cell growth in a cell viability assay.

LN-405 = experiment: cells; format: functional, cell-based; details: Homo sapiens
Description: SANGER: Inhibition of human LN-405 cell growth in a cell viability assay.

M059J = experiment: cells; format: functional, cell-based; details: Homo sapiens;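 note: growth inhibition of M059J cells, read out with a cell viability assay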
Description: SANGER: Inhibition of human M059J cell growth in a cell viability assay.

MHH-ES-1 = experiment: cells; format: functional, cell-based; details: Homo sapiens
Description: SANGER: Inhibition of human MHH-ES-1 cell growth in a cell viability assay.

MeWo = experiment: cells; format: functional, cell-based; details: Homo sapiens;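 note: growth inhibition of MeWo cells, determined by a cell viability readout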
Description: SANGER: Inhibition of human Mewo cell growth in a cell viability assay.

NALM-6 = experiment: cells; format: functional, cell-based; details: Homo sapiens;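 note: growth inhibition of NALM-6 cells, read out with a cell viability assay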
Description: SANGER: Inhibition of human NALM-6 cell growth in a cell viability assay.

NCI-H1437 = experiment: cells; format: functional, cell-based; details: Homo sapiens;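 note: growth inhibition of human NCI-H1437 cells, read out by a cell viability assay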
Description: SANGER: Inhibition of human NCI-H1437 cell growth in a cell viability assay.

NCI-H1623 = experiment: cells; format: functional, cell-based; details: Homo sapiens;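 note: cell viability assay used as the read-out for growth inhibition of NCI-H1623 cells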
Description: SANGER: Inhibition of human NCI-H1623 cell growth in a cell viability assay.

NCI-H1651 = experiment: cells; format: functional, cell-based; details: Homo sapiens;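 note: Read-out is a cell viability assay, with IC50 expressing inhibition of NCI-H1651 cell growth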
Description: SANGER: Inhibition of human NCI-H1651 cell growth in a cell viability assay.

NCI-H1693 = experiment: cells; format: functional, cell-based; details: Homo sapiens;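 note: growth inhibition of the human cell line, read out with a cell viability assay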
Description: SANGER: Inhibition of human NCI-H1693 cell growth in a cell viability assay.

NCI-H2347 = experiment: cells; format: functional, cell-based; details: Homo sapiens;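 note: growth inhibition of the cell line, read out with a cell viability assay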
Description: SANGER: Inhibition of human NCI-H2347 cell growth in a cell viability assay.

NCI-H2452 = experiment: cells; format: functional, cell-based; details: Homo sapiens;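 note: growth inhibition of NCI-H2452 cells, read out with a cell viability assay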
Description: SANGER: Inhibition of human NCI-H2452 cell growth in a cell viability assay.

NCI-H358 = experiment: cells; format: functional, cell-based; details: Homo sapiens;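 note: growth inhibition of NCI-H358 human cells, read out with a cell viability assay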
Description: SANGER: Inhibition of human NCI-H358 cell growth in a cell viability assay.

NCI-H460 = experiment: cells; format: functional, cell-based; details: Homo sapiens;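 note: cell viability assay scoring growth inhibition of human NCI-H460 cells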
Description: SANGER: Inhibition of human NCI-H460 cell growth in a cell viability assay.

NCI-H64 = experiment: cells; format: functional, cell-based; details: Homo sapiens;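 note: growth inhibition of NCI-H64 cells, read out with a cell viability assay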
Description: SANGER: Inhibition of human NCI-H64 cell growth in a cell viability assay.

NCI-H716 = experiment: cells; format: functional, cell-based; details: Homo sapiens;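 note: growth inhibition of human NCI-H716 cells, measured by a cell viability assay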
Description: SANGER: Inhibition of human NCI-H716 cell growth in a cell viability assay.

NCI-H719 = experiment: cells; format: functional, cell-based; details: Homo sapiens;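 note: growth inhibition of the cultured cell line, read out with a viability assay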
Description: SANGER: Inhibition of human NCI-H719 cell growth in a cell viability assay.

OE19 = experiment: cells; format: functional, cell-based; details: Homo sapiens;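 note: growth inhibition of OE19 cells, measured through a cell viability read-out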
Description: SANGER: Inhibition of human OE19 cell growth in a cell viability assay.

PA-1 = experiment: cells; format: functional, cell-based; details: Homo sapiens;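 note: IC50 for suppression of PA-1 cell proliferation, determined with a cell viability read-out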
Description: SANGER: Inhibition of human PA-1 cell growth in a cell viability assay.

PC-14 = experiment: cells; format: functional, cell-based; details: Homo sapiens;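 note: cell viability assay measuring inhibition of PC-14 cell growth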
Description: SANGER: Inhibition of human PC-14 cell growth in a cell viability assay.

RO82-W-1 = experiment: cells; format: functional, cell-based; details: Homo sapiens;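 note: growth inhibition of human RO82-W-1 cells, measured with a cell viability assay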
Description: SANGER: Inhibition of human RO82-W-1 cell growth in a cell viability assay.

RPMI-6666 = experiment: cells; format: functional, cell-based; details: Homo sapiens
Description: SANGER: Inhibition of human RPMI-6666 cell growth in a cell viability assay.

SCLC-21H = experiment: cells; format: functional, cell-based; details: Homo sapiens;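 note: growth inhibition of cultured human SCLC-21H cells, read out with a cell viability assay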
Description: SANGER: Inhibition of human SCLC-21H cell growth in a cell viability assay.

SK-MEL-24 = experiment: cells; format: functional, cell-based; details: Homo sapiens;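 note: growth inhibition read out by a cell viability assay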
Description: SANGER: Inhibition of human SK-MEL-24 cell growth in a cell viability assay.

SK-MEL-28 = experiment: cells; format: functional, cell-based; details: Homo sapiens;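 note: growth inhibition of human SK-MEL-28 cells, read out with a cell viability assay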
Description: SANGER: Inhibition of human SK-MEL-28 cell growth in a cell viability assay.

SK-N-AS = experiment: cells; format: functional, cell-based; details: Homo sapiens;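 note: growth inhibition of human SK-N-AS cells, measured with a cell viability assay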
Description: SANGER: Inhibition of human SK-N-AS cell growth in a cell viability assay.

SW1088 = experiment: cells; format: functional, cell-based; details: Homo sapiens;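 note: growth inhibition of human SW1088 cells, read out by a cell viability assay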
Description: SANGER: Inhibition of human SW1088 cell growth in a cell viability assay.

SW1463 = experiment: cells; format: functional, cell-based; details: Homo sapiens;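 note: growth inhibition of SW1463 cells, determined with a cell viability assay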
Description: SANGER: Inhibition of human SW1463 cell growth in a cell viability assay.

SW1710 = experiment: cells; format: functional, cell-based; details: Homo sapiens;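 note: growth inhibition of SW1710 cells, determined with a cell viability assay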
Description: SANGER: Inhibition of human SW1710 cell growth in a cell viability assay.

SW948 = experiment: cells; format: functional, cell-based; details: Homo sapiens;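 note: growth inhibition of SW948 cells, read out with a cell viability assay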
Description: SANGER: Inhibition of human SW948 cell growth in a cell viability assay.

T84 = experiment: cells; format: functional, cell-based; details: Homo sapiens;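 note: growth inhibition measured with a cell viability readout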
Description: SANGER: Inhibition of human T84 cell growth in a cell viability assay.

TCC-SUP = experiment: cells; format: functional, cell-based; details: Homo sapiens;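 note: growth inhibition of TCC-SUP cells, read out with a cell viability assay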
Description: SANGER: Inhibition of human TCCSUP cell growth in a cell viability assay.

ABC-1 = experiment: cells; format: functional, cell-based; details: Homo sapiens;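 note: growth inhibition of human ABC-1 cells, read out by a cell viability assay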
Description: SANGER: Inhibition of human ABC-1 cell growth in a cell viability assay.

ARH-77 = experiment: cells; format: functional, cell-based; details: Homo sapiens;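 note: growth inhibition of ARH-77 cells, read out by a cell viability assay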
Description: SANGER: Inhibition of human ARH-77 cell growth in a cell viability assay.

BEN = experiment: cells; format: functional, cell-based; details: Homo sapiens;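 note: growth inhibition of the BEN cell line, read out with a cell viability assay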
Description: SANGER: Inhibition of human BEN cell growth in a cell viability assay.

BOKU = experiment: cells; format: functional, cell-based; details: Homo sapiens;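 note: growth inhibition of the human BOKU cell line, read out by a cell viability assay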
Description: SANGER: Inhibition of human BOKU cell growth in a cell viability assay.

BXPC-3 = experiment: cells; format: functional, cell-based; details: Homo sapiens;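 note: growth inhibition of human BxPC-3 cells, read out by a cell viability assay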
Description: SANGER: Inhibition of human BxPC-3 cell growth in a cell viability assay.

CAKI-1 = experiment: cells; format: functional, cell-based; details: Homo sapiens;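 note: growth inhibition of CAKI-1 cells, measured by a cell viability assay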
Description: SANGER: Inhibition of human CAKI-1 cell growth in a cell viability assay.

CAL-39 = experiment: cells; format: functional, cell-based; details: Homo sapiens
Description: SANGER: Inhibition of human CAL-39 cell growth in a cell viability assay.

U2OS = experiment: cells; format: functional, cell-based, U-2-OS; details: Homo sapiens
Description: SANGER: Inhibition of human U-2-OS cell growth in a cell viability assay.

UACC-812 = experiment: cells; format: functional, cell-based; details: Homo sapiens
Description: SANGER: Inhibition of human UACC-812 cell growth in a cell viability assay.

UMUC3 = experiment: cells; format: functional, cell-based; details: Homo sapiens
Description: SANGER: Inhibition of human UM-UC-3 cell growth in a cell viability assay.

CESS = experiment: SANGER: Inhibition of human CESS cell growth in a cell viability assay.; format: functional, cell-based
EW-22 = experiment: cells; format: functional, cell-based; details: Homo sapiens
Description: SANGER: Inhibition of human EW-22 cell growth in a cell viability assay.

MOLT-13 = experiment: cells; format: functional, cell-based; details: Homo sapiens
Description: SANGER: Inhibition of human MOLT-13 cell growth in a cell viability assay.

Compound: CC(C)=CC[C@@H](O)C1=CC(=O)c2c(O)ccc(O)c2C1=O [SHIKONIN]
- IC50 (COLO-741): 2690 nM
- IC50 (COR-L23): 301 nM
- IC50 (CaR-1): 1310 nM
- IC50 (D-247MG): 1660 nM
- IC50 (DMS-273): 396 nM
- IC50 (DOK): 5.19 µM
- IC50 (EB-3): 1140 nM
- IC50 (EGI-1): 2510 nM
- IC50 (G-402): 882 nM
- IC50 (HCT-116): 386 nM
- IC50 (HLE): 88.3 nM
- IC50 (Hs-578T): 6.22 µM
- IC50 (HuO-3N1): 4.43 µM
- IC50 (HuP-T4): 1360 nM
- IC50 (IGR-1): 154 nM
- IC50 (IM-9): 3.41 µM
- IC50 (J82): 143 nM
- IC50 (KYSE-140): 374 nM
- IC50 (KYSE-270): 217 nM
- IC50 (KYSE-70 cell line): 2420 nM
- IC50 (LCLC-97TM1): 613 nM
- IC50 (LN-405): 6.91 µM
- IC50 (M059J): 134 nM
- IC50 (MHH-ES-1): 689 nM
- IC50 (MeWo): 517 nM
- IC50 (NALM-6): < 62.5 nM
- IC50 (NCI-H1437): 1560 nM
- IC50 (NCI-H1623): 2730 nM
- IC50 (NCI-H1651): > 16 µM
- IC50 (NCI-H1693): > 16 µM
- IC50 (NCI-H2347): 968 nM
- IC50 (NCI-H2452): > 16 µM
- IC50 (NCI-H358): 658 nM
- IC50 (NCI-H460): 1280 nM
- IC50 (NCI-H64): 547 nM
- IC50 (NCI-H716): > 16 µM
- IC50 (NCI-H719): 2610 nM
- IC50 (OE19): 807 nM
- IC50 (PA-1): 201 nM
- IC50 (PC-14): 1510 nM
- IC50 (RO82-W-1): 2840 nM
- IC50 (RPMI-6666): 587 nM
- IC50 (SCLC-21H): 1360 nM
- IC50 (SK-MEL-24): 1130 nM
- IC50 (SK-MEL-28): > 16 µM
- IC50 (SK-N-AS): 1790 nM
- IC50 (SW1088): 700 nM
- IC50 (SW1463): 8.61 µM
- IC50 (SW1710): < 62.5 nM
- IC50 (SW948): 11.9 µM
- IC50 (T84): 14.5 µM
- IC50 (TCC-SUP): 554 nM
- IC50 (ABC-1): 707 nM
- IC50 (ARH-77): 873 nM
- IC50 (BEN): 814 nM
- IC50 (BOKU): 1870 nM
- IC50 (BXPC-3): 334 nM
- IC50 (CAKI-1): 894 nM
- IC50 (CAL-39): 483 nM
- IC50 (U2OS): > 16 µM
- IC50 (UACC-812): 5.08 µM
- IC50 (UMUC3): 967 nM
- IC50 (CESS): 776 nM

Compound: CCn1c(-c2nonc2N)nc2cnc(Oc3cccc(NC(=O)c4ccc(OCCN5CCOCC5)cc4)c3)cc21 [GSK-269962A]
- IC50 (D-247MG): 628 nM
- IC50 (EB-3): > 2500 nM
- IC50 (EW-22): > 2.5 µM
- IC50 (IM-9): > 2.5 µM
- IC50 (MOLT-13): > 2.5 µM
- IC50 (NALM-6): 1560 nM
- IC50 (NCI-H64): > 2500 nM
- IC50 (NCI-H716): > 2.5 µM
- IC50 (NCI-H719): > 2500 nM
- IC50 (RPMI-6666): > 2500 nM
- IC50 (SCLC-21H): > 2500 nM
- IC50 (ARH-77): > 2500 nM
- IC50 (UACC-812): > 2.5 µM
- IC50 (CESS): > 2500 nM

Compound: Cc1ccc(NC(=O)c2cccc(C(C)(C)C#N)c2)cc1Nc1ccc2ncn(C)c(=O)c2c1
- IC50 (D-247MG): > 4000 nM
- IC50 (EB-3): > 4000 nM
- IC50 (EW-22): > 4 µM
- IC50 (IM-9): > 4 µM
- IC50 (MOLT-13): > 4 µM
- IC50 (NALM-6): > 4000 nM
- IC50 (NCI-H64): > 4000 nM
- IC50 (NCI-H716): > 4 µM
- IC50 (NCI-H719): > 4000 nM
- IC50 (RPMI-6666): > 4000 nM
- IC50 (SCLC-21H): > 4000 nM
- IC50 (ARH-77): > 4000 nM
- IC50 (UACC-812): > 4 µM
- IC50 (CESS): > 4000 nM
